Patent publication US20240050449A1, “Use of Acetyltanshinone IIA in Preparation of Medicament for Treating Lung Cancer and Medicament for Treating Lung Cancer” (UNIVERSITY OF MACAU, priority 2022, published 2024)
“Also recorded” adds a separate entry of the source.

Legend:
H1975 cells = assay: Spheroid formation experiment, H1975 cells; type: cell-based
Description: The density of H1975 was 500 cells per well and the density of H1650 was 1000 cells per well in an ultra-low adhesion round bottom 96 well plate (Corning, #7007).

A549 cells [1] = assay: Colony formation (cloning experiment), A549 cells; type: cell-based; conditions: 0.125 μM, 10 days
Method: (§1) Cells were seeded at a density of 1×10^3 per well in 6-well plates and cultured for 24 h. The cells were treated with medicament or DMSO for 10 days, after which the cells were washed once with 1×PBS, fixed with 4% paraformaldehyde for 20 min, and stained with 0.1% crystal violet for 15 min. The stained cells in each well were imaged and the number of colonies in each well was quantified using ImageJ software.

H358 cells [2] = assay: Colony formation (cloning experiment), H358 cells; type: cell-based; conditions: 10 days
Method: as §1

A549 cells [3] = assay: MTT cell viability assay, A549 cells; type: cell-based
Method: (§2) Cells were seeded at a density of 3×10^3 per well in 96-well plates, allowed to attach overnight, and treated with various concentrations of agent. After 72 h of treatment, 10 μL of MTT solution (5 mg/mL) was added to each well and cultured in the plate for 4 h. The crystallized formazan was dissolved in 100 μL of 10% (w/v) SDS and 0.01 mol/L HCl solution for 24 h, and then the value was read by spectrophotometry at 595 nm using a microplate reader.

H1650 cells [4] = assay: Spheroid formation experiment, H1650 cells
H1650 cells [5] = assay: Colony formation (cloning experiment), H1650 cells; type: cell-based; conditions: 10 days
Method: as §1

A549 cells [6] = assay: Transwell cell migration assay; type: cell-based
Method: Cell migration and invasion assays were performed in a transwell chamber (Corning, #3422) with a pore size of 8 μm. Cells were treated with different concentrations of ATA and Erlotinib for 48 h, then harvested and resuspended in a serum-free medium. Cells (1×10^4) were added to the upper side of the transwell chamber and fresh medium containing 10% FBS was added to the lower side. Cells were allowed to migrate from the upper side to the lower side of the chamber at 37° C. for 24 h. Membranes from the cell chamber were fixed with 4% paraformaldehyde for 20 min. The cells remaining on the upper side of the membrane were gently removed with a cotton swab and stained with 1% crystal violet for 20 min to stain the cells migrating to the other side of the transwell chamber. The membrane was then cut and fixed on a glass slide. The migrated cells on each slide were imaged with a Leica M165-FC microscope. For the transwell invasion assay, a Matrigel solution (Corning, #356230) was diluted to one-thirtieth with serum-free medium and applied to the upper side of the precoated chamber for 2 h, after the Matrigel had solidified, the cells were added to the upper side of the transwell chamber. The following procedure is identical to the migration assay. Migrated and invaded cells were quantified using ImageJ software.

H358 cells [7] = assay: MTT cell viability assay, H358 cells; type: cell-based
Method: as §2

MET = assay: Western blot, MET protein levels in drug-resistant NSCLC cells; type: cell-based; conditions: 2 μM
Method: Cells were washed once with PBS and frozen in RIPA lysis buffer containing protease and phosphatase inhibitors (Sigma-Aldrich) for 30 min. After sonication and centrifugation, the total protein concentration was determined by protein assay using Bio-Rad concentrated dye reagent (Bio-Rad). Equal amounts of protein ([…]) from each sample were separated by SDS-PAGE and electrotransferred to nitrocellulose membranes (GE Healthcare). Detection was performed on the membrane with a 1:1000 dilution of specific primary antibody followed by incubation with a 1:2000 dilution of the HRP conjugated secondary antibody. Finally, immunoreactivity is detected with a chemiluminescent substrate (Clarity Western ECL substrate; Bio-Rad). […] Aurora A (#ab13824) and PLK1 (#ab189139) antibodies were from Abcam.

CC(=O)Oc1c(OC(C)=O)c2c(C)coc2c2ccc3c(c12)CCCC3(C)C [ATA, acetyltanshinone IIA]
spheroid growth / sphere size (H1975 cells; 2 μM, 0 to 8 days): completely inhibited
spheroid formation (H1975 cells; both 1 and 2 μM): strongly inhibited
reduction of colony-forming capacity (A549 cells [1]): 42%
inhibition of colony formation (H358 cells [2]; 0.125 μM): almost completely inhibited
colony formation inhibition compared with Afatinib (H358 cells [2]; 1 μM): significantly higher colony formation inhibition than Afatinib
IC50 ratio of Erlotinib/ATA (A549 cells [3]): 10.7
growth inhibition compared with other agents (A549 cells [3]; ATA 2 μM, 72 h, MTT): significantly higher than all three inhibitors; also recorded: greater growth inhibition than combination therapy with Erlotinib and MLN8237
IC50 (A549 cells [3]; MTT, 72 h): 1830 ± 210 nM
spheroid growth / sphere size (H1650 cells [4]; 2 μM, 0 to 8 days): completely inhibited
spheroid formation (H1650 cells [4]; both 1 and 2 μM): strongly inhibited
reduction of colony-forming capacity (H1650 cells [5]; 0.125 μM): 73%
colony formation inhibition compared with Afatinib (H1650 cells [5]; 1 μM): significantly higher colony formation inhibition than Afatinib
effect on cell migration (A549 cells [6]; 0.5 μM): significant inhibitory effect
reduction of migration ability (A549 cells [6]; 1 μM): 80%
IC50 ratio of Erlotinib/ATA (H358 cells [7]): 13.7
IC50 (H358 cells [7]; MTT, 72 h): 1570 ± 100 nM
decrease of MET protein levels (MET; A549 cells, 72 or 96 h): ≤ 90%
reduction of MET protein levels (MET; all four cell lines, 48 h): 70-90%
